What follows are compounds tested against T1, B1R of the rat (Rattus norvegicus, UniProt P97583) (assay: FLIPR Ca2+ influx assay, B1R antagonism, rat (rB1R CHO K1 cells)). Conditions: test substance 10 μM; CHO K1 cells stably transfected with rat B1R; agonist Des-Arg9-bradykinin at EC80; % inhibition compared with maximum achievable inhibition.
T1 construct: expressed in transfected cells; host or cells: CHO K1 cells (rB1R cells)
T1 sequence (P97583 1-337): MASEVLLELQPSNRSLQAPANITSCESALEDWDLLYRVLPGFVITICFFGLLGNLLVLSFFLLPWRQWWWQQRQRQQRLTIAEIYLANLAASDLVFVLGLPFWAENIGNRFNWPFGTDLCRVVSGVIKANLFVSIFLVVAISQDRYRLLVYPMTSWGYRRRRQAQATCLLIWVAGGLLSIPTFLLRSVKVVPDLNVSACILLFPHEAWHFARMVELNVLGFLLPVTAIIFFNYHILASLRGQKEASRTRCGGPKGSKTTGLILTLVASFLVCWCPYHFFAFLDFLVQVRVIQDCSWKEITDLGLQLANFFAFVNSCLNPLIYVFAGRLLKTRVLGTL
Type: cell-based
Description: The agonistic or antagonistic action of substances can be quantified on the bradykinin receptor 1 (B1R) of the species human and rat using ectopically expressing cell lines (CHO K1 cells) and with the aid of a Ca^2+-sensitive dye (Fluo-4) using a fluorescent imaging plate reader (FLIPR). The indication in % activation is based on the Ca^2+ signal after addition of Lys-Des-Arg^9-bradykinin (0.5 nM) or Des-Arg^9-bradykinin (100 nM). Antagonists lead to suppression of the Ca^2+ influx after the addition of the agonist. % Inhibition compared with the maximum achievable inhibition is indicated.
The agonistic or antagonistic action of substances can be determined on the bradykinin receptor 1 (B1R) of the species human and rat using the following assay. According to this assay, the Ca^2+ influx through the channel is quantified with the aid of a Ca^2+-sensitive dye (Fluo-4 type, Molecular Probes Europe BV, Leiden, Netherlands) using a Fluorescent Imaging Plate Reader (FLIPR, Molecular Devices, Sunnyvale, USA).
Chinese hamster ovary cells (CHO K1 cells) which have been stably transfected with the human B1R gene (hB1R cells) or with the B1R gene of the rat (rB1R cells) are used. For functional studies, the cells are plated out on black 96-well plates having a clear base (BD Biosciences, Heidelberg, Germany or Greiner, Frickenhausen, Germany) in a density of 20,000-35,000 cells/well. The cells are incubated overnight at 37° C. and with 5% CO2 in culture medium (hB1R cells: Nutrient Mixture Ham's F12, Gibco Invitrogen GmbH, Karlsruhe, Germany or DMEM, Sigma-Aldrich, Taufkirchen, Germany; rB1R cells: D-MEM/F12, Gibco Invitrogen GmbH, Karlsruhe, Germany), with 10 vol. % FBS (fetal bovine serum, Gibco Invitrogen GmbH, Karlsruhe, Germany or PAN Biotech GmbH, Aidenbach, Germany).
On the following day, the cells are loaded for 60 minutes at 37° C. with 2.13 μM Fluo-4 (Molecular Probes Europe BV, Leiden, Netherlands) in HBSS buffer (Hank's buffered saline solution, Gibco Invitrogen GmbH, Karlsruhe, Germany) […] (Sigma-Aldrich, Taufkirchen, Germany) and 10 mM HEPES (Sigma-Aldrich, Taufkirchen, Germany). The plates are then washed twice with HBSS buffer, and HBSS buffer additionally containing 0.1% BSA (bovine serum albumin; Sigma-Aldrich, Taufkirchen, Germany), 5.6 mM glucose and 0.05% gelatin (Merck KGaA, Darmstadt, Germany) is added to the plates. After incubation for a further 20 minutes at room temperature, the plates are inserted into the FLIPR for Ca^2+ measurement.
Alternatively, washing is carried out with buffer A (15 mM HEPES, 80 mM NaCl, 5 mM KCl, 1.2 mM CaCl2, 0.7 mM MgSO4, 2 g/l glucose, 2.5 mM probenecid) followed by loading with buffer A with added 2.5 μM Fluo-4 and 0.025% Pluronic F127 (Sigma-Aldrich, Taufkirchen, Germany). The cells are then washed twice with buffer A and incubated for 30 minutes at room temperature with buffer A additionally containing 0.05% BSA and 0.05% gelatin and are then inserted into the FLIPR for Ca^2+ measurement.
The Ca^2+-dependent fluorescence is measured before and after the addition of substances (λex=488 nm, λem=540 nm). Quantification is carried out by measuring the highest fluorescence intensity (FC, fluorescence counts) over time.
The FLIPR protocol consists of two substance additions. Test substances (10 μM) are first pipetted onto the cells and the Ca^2+ influx is compared with the control (hB1R: Lys-Des-Arg^9-bradykinin >=50 nM; rB1R: Des-Arg^9-bradykinin 10 μM). This gives the activation in %, based on the Ca^2+ signal after addition of Lys-Des-Arg^9-bradykinin (>=50 nM) or Des-Arg^9-bradykinin (10 μM). After 10-20 minutes' incubation, Lys-Des-Arg^9-bradykinin (hB1R) or Des-Arg^9-bradykinin (rB1R) is applied in the concentration of the EC80, and the influx of Ca^2+ is likewise determined. Antagonists lead to suppression of the Ca^2+ influx. The % inhibition compared with the maximum achievable inhibition is calculated. […]

| B1R antagonism, rat [10 μM] % inhibition [%] | Compound |
| --- | --- |
| 63 | CS(=O)(=O)N(CCOCC(=O)N1CCC(CCCN2CCCC2)(c2ccncc2)CC1)C(c1ccccc1)c1ccccc1 [Example 65, N-Benzhydryl-N-[2-[2-oxo-2-[4-pyridin-4-yl-4-(3-pyrrolidin-1-yl-propyl)-piperidin-1-yl]-ethoxy]-ethyl]-methanesulfonic acid amide] |
| 100 | O=C(COCC1CCCCN1S(=O)(=O)c1ccccc1C(F)(F)F)N1CCC(CCCN2CCCC2)(c2ccncc2)CC1 (centres unmarked) [Example 44, 1-[4-Pyridin-4-yl-4-(3-pyrrolidin-1-yl-propyl)-piperidin-1-yl]-2-[[1-[[2-(trifluoromethyl)-phenyl]sulfonyl]-piperidin-2-yl]-methoxy]-ethanone] |
| 100 | COc1cc(C)c(S(=O)(=O)N(CCOCC(=O)N2CCC(CCCN3CCCC3)(c3ccncc3)CC2)Cc2ccccc2)c(C)c1 [Example 40, N-Benzyl-4-Methoxy-2,6-dimethyl-N-[2-[2-oxo-2-[4-pyridin-4-yl-4-(3-pyrrolidin-1-yl-propyl)-piperidin-1-yl]-ethoxy]-ethyl]-benzenesulfonic acid amide] |
| 101 | O=C(CCCC1CCCCN1S(=O)(=O)c1ccccc1C(F)(F)F)N1CCC(CCCN2CCCC2)(c2ccncc2)CC1 (centres unmarked) [Example 59, 1-[4-Pyridin-4-yl-4-(3-pyrrolidin-1-yl-propyl)-piperidin-1-yl]-4-[1-[[2-(trifluoromethyl)-phenyl]sulfonyl]-piperidin-2-yl]-butan-1-one] |
| 100 | COc1cc(C)c(S(=O)(=O)N2c3ccccc3OCC2COCC(=O)N2CCC(CCCN3CCCC3)(c3ccncc3)CC2)c(C)c1 (centres unmarked) [Example 70, 2-[[4-[(4-Methoxy-2,6-dimethyl-phenyl)sulfonyl]-3,4-dihydro-2H-[1,4]benzoxazin-3-yl]-methoxy]-1-[4-pyridin-4-yl-4-(3-pyrrolidin-1-yl-propyl)-piperidin-1-yl]-ethanone] |
| 101 | COc1cc(C)c(S(=O)(=O)N2CCCCC2CCOCC(=O)N2CCC(CCCN3CCCC3)(c3cccnc3)CC2)c(C)c1 (centres unmarked) [Example 46, 2-[2-[1-[(4-Methoxy-2,6-dimethyl-phenyl)sulfonyl]-piperidin-2-yl]-ethoxy]-1-[4-pyridin-3-yl-4-(3-pyrrolidin-1-yl-propyl)-piperidin-1-yl]-ethanone] |

Same assay, conditions: test substance 10 μM; CHO K1 cells stably transfected with rat B1R; agonist Des-Arg9-bradykinin at EC80; % inhibition compared with maximum achievable inhibition; read-out: B1R antagonism, rat [10 μM] % inhibition

| inhibition at 10 µM [%] | Compound |
| --- | --- |
| 100 | COc1cc(C)c(S(=O)(=O)N(CCOCC(=O)N2CCC(CCCN3CCCC3)(c3ccncc3)CC2)c2ccccc2)c(C)c1 [Example 50, 4-Methoxy-2,6-Dimethyl-N-[2-[2-oxo-2-[4-pyridin-4-yl-4-(3-pyrrolidin-1-yl-propyl)-piperidin-1-yl]-ethoxy]-ethyl]-N-phenyl-benzenesulfonic acid amide] |
| 53 | CN(CCCC(=O)N1CCC(CCCN2CCCC2)(c2cccnc2)CC1)S(=O)(=O)c1cccc(C(F)(F)F)c1 [Example 47, N-Methyl-N-[4-Oxo-4-[4-pyridin-3-yl-4-(3-pyrrolidin-1-yl-propyl)-piperidin-1-yl]-butyl]-3-(trifluoromethyl)-benzenesulfonic acid amide] |
| 97 | Cc1cccc(Cl)c1S(=O)(=O)N1CCCCC1CCCC(=O)N1CCC(CCCN2CCCC2)(c2ccncc2)CC1 (centres unmarked) [Example 56, 4-[1-[(2-Chloro-6-methyl-phenyl)sulfonyl]-piperidin-2-yl]-1-[4-pyridin-4-yl-4-(3-pyrrolidin-1-yl-propyl)-piperidin-1-yl]-butan-1-one] |
| 101 | O=C(COCC1CCCCN1S(=O)(=O)c1ccccc1C(F)(F)F)N1CCC(CCCN2CCCC2)(c2ccncc2)CC1 (centres unmarked) [Example 43, 1-[4-Pyridin-4-yl-4-(3-pyrrolidin-1-yl-propyl)-piperidin-1-yl]-2-[[1-[[2-(trifluoromethyl)-phenyl]sulfonyl]-piperidin-2-yl]-methoxy]-ethanone] |
| 70 | O=C(CCCC1CCCCN1S(=O)(=O)c1ccccc1C(F)(F)F)N1CCC(CCCN2CCCC2)(c2cccnc2)CC1 (centres unmarked) [Example 57, 1-[4-Pyridin-3-yl-4-(3-pyrrolidin-1-yl-propyl)-piperidin-1-yl]-4-[1-[[2-(trifluoromethyl)-phenyl]sulfonyl]-piperidin-2-yl]-butan-1-one] |
| 84 | O=C(COCC1COc2ccccc2N1S(=O)(=O)c1ccccc1C(F)(F)F)N1CCC(CCCN2CCCC2)(c2cccnc2)CC1 (centres unmarked) [Example 73, 1-[4-Pyridin-3-yl-4-(3-pyrrolidin-1-yl-propyl)-piperidin-1-yl]-2-[[4-[[2-(trifluoromethyl)-phenyl]sulfonyl]-3,4-dihydro-2H-[1,4]benzoxazin-3-yl]-methoxy]-ethanone] |
| 100 | COc1cc(C)c(S(=O)(=O)N2CCCCC2CCOCC(=O)N2CCC(CCCN3CCCC3)(c3cccnc3)CC2)c(C)c1 (centres unmarked) [Example 45, 2-[2-[1-[(4-Methoxy-2,6-dimethyl-phenyl)sulfonyl]-piperidin-2-yl]-ethoxy]-1-[4-pyridin-3-yl-4-(3-pyrrolidin-1-yl-propyl)-piperidin-1-yl]-ethanone] |
| 101 | COc1cc(C)c(S(=O)(=O)N(CCOCC(=O)N2CCC(CCCN3CCCC3)(c3ccncc3)CC2)Cc2ccc3c(c2)OCOC3)c(C)c1 [Example 76, N-(4H-[1,3]Benzodioxin-7-yl-methyl)-4-methoxy-2,6-dimethyl-N-[2-[2-oxo-2-[4-pyridin-4-yl-4-(3-pyrrolidin-1-yl-propyl)-piperidin-1-yl]-ethoxy]-ethyl]-benzenesulfonic acid amide] |
| 99 | COc1cc(C)c(S(=O)(=O)N2c3ccccc3OCC2COCC(=O)N2CCC(CCCN3CCCC3)(c3ccncc3)CC2)c(C)c1 (centres unmarked) [Example 69, 2-[[4-[(4-Methoxy-2,6-dimethyl-phenyl)sulfonyl]-3,4-dihydro-2H-[1,4]benzoxazin-3-yl]-methoxy]-1-[4-pyridin-4-yl-4-(3-pyrrolidin-1-yl-propyl)-piperidin-1-yl]-ethanone] |
| 99 | COc1cc(C)c(S(=O)(=O)N(CCOCC(=O)N2CCC(CCCN3CCCC3)(c3ccncc3)CC2)Cc2ccccc2)c(C)c1 [Example 39, N-Benzyl-4-Methoxy-2,6-dimethyl-N-[2-[2-oxo-2-[4-pyridin-4-yl-4-(3-pyrrolidin-1-yl-propyl)-piperidin-1-yl]-ethoxy]-ethyl]-benzenesulfonic acid amide] |
| 100 | COc1cc(C)c(S(=O)(=O)N(C)CCOCC(=O)N2CCC(CCCN3CCCC3)(c3ccncc3)CC2)c(C)c1C [Example 32, 4-Methoxy-N,2,3,6-tetramethyl-N-[2-[2-oxo-2-[4-pyridin-4-yl-4-(3-pyrrolidin-1-yl-propyl)-piperidin-1-yl]-ethoxy]-ethyl]-benzenesulfonic acid amide] |
